Assay results taken from US10314885B2, “Oxytocin treatment to modify blood glucose and treat metabolic disease” (The Regents of the University of California, priority 2010, dated 2019).
Marks after values point to notes of the source that are not given here.

How the values were obtained:
Assay type in all cases: in vivo, human
[1] = Blood chemistry analysis and urine osmolality at endpoint
Experimental: (§1) Study Drugs. Subjects were maintained on their pre-study antipsychotic medication regimen and doses were not changed during the study. Subjects received 3-weeks of daily intranasal oxytocin (Syntocinin, Novartis, Basel Switzerland) and 3-weeks of daily intranasal placebo. Oxytocin was dosed at 20 IU (5 sprays) twice a day for the first week and 40 IU (10 sprays) twice a day thereafter. Order of treatment (placebo-oxytocin or oxytocin-placebo) was randomly assigned using a computer generated random sequence.
(§2) Safety was assessed at each visit by a medical exam, and assessments of reported adverse events. In addition, urine was collected for osmolality testing and blood was drawn at each visit and analyzed at UCSD laboratories for basic chemistry analysis. Statistical Methods. Data from all subjects who received at least one dose and one assessment in both treatment periods (intent-to-treat population) were subjected to analysisusing SPSS version 11.0. Baseline scores for both drug treatments were compared for similarity using paired t-test. The change in baseline scores from period 1 to period 2 was compared among the placebo-oxytocin versus oxytocin-placebo group using a two-sample t-test to assess for period carry-over effects. PANNS and CGI data were subjected to repeated measures ANOVA with drug and treatment-week as repeated measures factors. Treatment sequence was included as a between-subjects factor to evaluate possible period and carry-over effects. Paired t-tests, corrected for multiple-comparisons using Bonferoni method were used to compare placebo and oxytocin scores at endpoint and each the other assessment visits. Cohen's d statistic was calculated for each measure at endpoint.

[2] = tested on: Subjects with a DSM-IV diagnosis of schizophrenia; assay: Letter Number Sequencing subtest (LNS) of WAIS-III; conditions: after 3 weeks of intranasal oxytocin
From the text: (§3) Participants. Subjects with a DSM-IV diagnosis of schizophrenia, confirmed by SCID interview, were enrolled in a double-blind, placebo-controlled, crossover study. Other main inclusion criteria were: minimum 18 years of age, treatment with 1 or 2 approved antipsychotic medication with no dose changes in the previous four weeks, a minimum Positive and Negative Syndrome Scale (PANSS) score of at least 55 with a minimum score of 4 and a Clinical Global Impressions-Severity (CGI-S) scale score of at least 4 (moderately ill) at randomization.
Study Drugs. Subjects were maintained on a stable dose of their pre-study antipsychotic medication regimen. In addition to their antipsychotics, subjects received 3-weeks of daily intranasal oxytocin (Syntocinin, Novartis, Basel Switzerland) dosed 20 IU twice a day for the first week and then 40 IU twice a day for weeks two and three, and 3-weeks of daily intranasal placebo. […]
The Letter Number Sequencing subtest (LNS) is a component of the larger WAIS-III and is used to measure attention and working memory. […] In each trial of the LNS, a list of letters and numbers are read in a mixed order to participants; participants are asked to recall first the digits and then the letters in the order they were presented. […] Scores are calculated by totaling the correct responses for each length. […]

[3] = tested on: Subjects with a DSM-IV diagnosis of schizophrenia; assay: Reported adverse events in the crossover study
Experimental: as §1, §2

[4] = tested on: Subjects with a DSM-IV diagnosis of schizophrenia; assay: California Verbal Learning Test (CVLT-II)
From the text: as §3
Study Drugs. Subjects were maintained on a stable dose of their pre-study antipsychotic medication regimen. In addition to their antipsychotics, subjects received 3-weeks of daily intranasal oxytocin (Syntocinin, Novartis, Basel Switzerland) dosed 20 IU twice a day for the first week and then 40 IU twice a day for weeks two and three, and 3-weeks of daily intranasal placebo. Order of treatment (placebo-oxytocin or oxytocin-placebo) was randomly assigned using a computer generated random sequence.
Safety and efficacy assessments. Subjects, raters, and study staff enrolling patients were blinded to treatment condition. The total study duration for each individual subject was 7 weeks, which included a baseline visit (V1), a three-week initial treatment period, a 1 week washout (between V4 and V5), a repeat baseline visit, and a three-week crossover treatment period. Subjects received the cognitive tests a total of 3 times: at baseline visits (V1, and after 3 weeks of treatment with placebo and oxytocin (V4, V7).
The CVLT-II is a commonly-used test of new learning and declarative verbal memory, which closely resembles the HVLT (Hopkins Verbal Learning Test), a part of the standardized MATRICS cognitive battery, now used to measure cognitive changes in Schizophrenia clinical trials. In the CVLT-II, lists of 16 words (List A) from various semantic categories are read over 5 trials. After each trial, subject is asked to recall as many words as they can (free recall). An interference list (List B) is then presented. Free and cued recall of List A is measured immediately following (short delay) and 20 minutes (long delay). At the end of the test, a 44 word recognition task is performed with subjects identifying target words among 28 distractors. The CVLT's format allows assessment of multiple aspects of cognition: overall recall ability, rate of learning over sequential trials, ability to retain learned material, and item recognition.
For each subtest a two-factor repeated ANOVA with drug treatment (placebo/oxytocin) and order of treatment as factors was conducted.

[5] = tested on: Subjects with a DSM-IV diagnosis of schizophrenia; assay: PANSS and CGI efficacy assessment, double-blind placebo-controlled crossover study of adjunctive intranasal oxytocin; conditions: for CGI-Severity score: Baseline of oxytocin arm (CGI-Severity, not CGI-Improvement); for CGI-I Cohen's d / PANSS Negative Cohen's d / PANSS Total Cohen's d: Week 3, oxytocin vs placebo; for PANSS Total Cohen's d: 0.2 small, 0.5 medium, 0.8 large
From the text: as §3, with “in this” for “in a”, “weeks,” for “weeks, a minimum”, “55” for “55 with a minimum score of 4”, “randomization. Because it was hypothesized that oxytocin may improve paranoia due to its pro-trust effect, subjects were also required to have a score of at least 4 (moderate) on item 6 (suspiciousness/persecution) of the PANSS. This study was approved by the UCSD IRB and written informed consent was obtained from all subjects.” for “randomization.”
as §1
Efficacy and Safety assessments. Subjects, raters and study staff enrolling patients were blinded to treatment condition. The total study duration for each individual subject was 7 weeks. Subjects were evaluated […]. Visit 1 and 5 were baseline assessments and visits 2, 3, 4 and 6, 7, 8 were the weekly visits for the two treatment periods, respectively. Washout occurred in the week between visit 4 and 5. At each visit raters assessed subjects utilizing the PANSS, CGI-S and CGI-Improvement (CGI-I). PANSS-total at the final visit of each treatment period was chosen a′ priori as the primary efficacy endpoint.
as §2

[6] = 3 weeks intranasal oxytocin, 15 completers
[7] = after 3 weeks of intranasal oxytocin, Mean (S.E.M.)
[8] = Baseline of oxytocin arm, mean (SD)
[9] = Week 1, intranasal 20 IU twice a day, mean (SD)
[10] = Week 2, intranasal 40 IU twice a day, mean (SD)
[11] = Week 3, intranasal 40 IU twice a day, mean (SD)

CC[C@H](C)[C@@H]1NC(=O)[C@H](Cc2ccc(O)cc2)NC(=O)[C@@H](N)CSSC[C@@H](C(=O)N2CCC[C@H]2C(=O)N[C@@H](CC(C)C)C(=O)NCC(N)=O)NC(=O)[C@H](CC(N)=O)NC(=O)[C@H](CCC(N)=O)NC1=O [Oxytocin, Cys-Tyr-Ile-Gln-Asn-Cys-Pro-Leu-Gly]
measured blood chemistry or urine osmolality, oxytocin versus placebo ([1]; at endpoint): no significant differences | BUN ([1]; blood, at endpoint): 10.8 mg/dL | Bicarb. ([1]; blood, at endpoint): 27.9 mmol/L | Calcium ([1]; blood, at endpoint): 9.3 mg/dL | Chloride ([1]; blood, at endpoint): 101.1 mmol/L | Creatinine ([1]; blood, at endpoint): 0.9 mg/dL | Potassium ([1]; blood, at endpoint): 4.4 mmol/L | Sodium ([1]; blood, at endpoint): 138.5 mmol/L | Glucose ([1]; blood, at endpoint (week 3)): 112.5 mg/dL | blood glucose levels compared to placebo ([1]; intranasal administration): reduction in blood glucose levels | Urine Osmolality ([1]; urine, at endpoint): 607.9 mOsm/kg | scores on the LNS, oxytocin versus placebo [2]: no significant difference | rates of reported adverse effects, oxytocin compared to placebo ([3]; 3 weeks each treatment): no significant differences | serious adverse events reported during the study ([3]; 3 weeks intranasal oxytocin twice daily): no serious adverse events | Dizzy or lightheaded, subjects reporting [3, 6]: 26.7% | Dyspepsia or nausea, subjects reporting [3, 6]: 26.7% | Headache, subjects reporting [3, 6]: 26.7% | Lethargy, subjects reporting [3, 6]: 0.0% | Nasal Irritation, subjects reporting [3, 6]: 26.7% | Sleep impairment, subjects reporting [3, 6]: 33.3% | tolerability ([3]; given twice daily for three weeks): well-tolerated | CVLT Long Delay Cued Recall Raw [4, 7]: 11.87 (0.97) | CVLT Long Delay Free Recall Raw [4, 7]: 10.87 (0.87) | CVLT Short Delay Cued Recall Raw [4, 7]: 12.00 (0.79) | CVLT Short Delay Free Recall Raw [4, 7]: 10.60 (1.03) | CVLT Total Intrusions Raw [4, 7]: 4.93 (1.90) | CVLT Total Recall Discriminability Raw [4, 7]: 2.22 (0.19) | CVLT Total Recognition Discriminability Raw [4, 7]: 2.97 (0.28) | CVLT Total Repetitions Raw [4, 7]: 13.67 (5.44) | CVLT Trials 1-5 Raw [4, 7]: 55.67 (3.65) | CVLT subscale scores, oxytocin versus placebo ([4]; all 9 subscales, after 3 weeks): scored higher | reduction on the PANSS-total ([5]; 3 weeks of treatment vs baseline (placebo 3.0 points)): 7.9 point | CGI-Severity score ([5]; mean (SD)): 4.67 (0.61)^ | CGI-Severity score ([5]; mean (SD), listed as oxytocin): 4.67±0.74 | PANSS Gen. Psy. score [5, 8]: 38.8 (7.6) | PANSS Negative score [5, 8]: 20.2 (4.7) | PANSS Positive score [5, 8]: 21.7 (4.1) | PANSS Total score ([5]; Baseline of oxytocin arm, mean (standard deviation)): 81.5 (12.4) | PANSS Total score ([5]; Baseline of oxytocin arm, mean (standard deviation), listed as oxytocin): 81.4±12.43 | PANSS Total score ([5]; Week 1, intranasal 20 IU twice a day, adjunctive to antipsychotics, mean (SD)): 76.3 (11.3) | CGI-I score [5, 9]: 3.33 (0.62) | PANSS Gen. Psy. score [5, 9]: 36.4 (8.1) | PANSS Negative score [5, 9]: 20.1 (4.8) | PANSS Positive score [5, 9]: 20.6 (4.5) | PANSS Total score ([5]; Week 2, intranasal 40 IU twice a day, adjunctive to antipsychotics, mean (SD)): 76.9 (13.2) | CGI-I score [5, 10]: 3.33 (1.20) | PANSS Gen. Psy. score [5, 10]: 36.3 (8.2) | PANSS Negative score [5, 10]: 19.7 (4.3) | PANSS Positive score [5, 10]: 20.5 (4.6) | PANSS Total score ([5]; Week 3 (endpoint), intranasal 40 IU twice a day, adjunctive to antipsychotics, mean (SD)): 73.6 (13.6)** | CGI-I Cohen's d [5]: [0.74] | PANSS Negative Cohen's d [5]: [0.50] | PANSS Total Cohen's d [5]: [0.43] | PANSS Total Cohen's d ([5]; listed as oxytocin): 0.43 | CGI-I Cohen's d ([5]; listed as oxytocin): 0.74 | PANSS Negative Cohen's d ([5]; listed as oxytocin): 0.50 | CGI-I score [5, 11]: 3.07 (0.70)** | PANSS Gen. Psy. score [5, 11]: 34.8 (6.9) | PANSS Negative score [5, 11]: 18.5 (4.5)* | PANSS Positive score [5, 11]: 19.9 (5.2)** | PANSS general psychopathology subscale, oxytocin versus placebo ([5]; any time point): not significantly different | PANSS-total difference oxytocin versus placebo ([5]; baseline): 0.60 | PANSS-total scores, oxytocin versus placebo ([5]; endpoint (week 3) visit, p<0.001): significantly lower | PANSS-total difference oxytocin versus placebo ([5]; endpoint (week 3), p<0.001): 5.46 | PANSS-total difference oxytocin versus placebo ([5]; week 1): 0.60 | PANSS-total difference oxytocin versus placebo ([5]; week 2): 1.20 | CGI-I, oxytocin versus placebo ([5]; week 3, P<0.001): significantly lower | PANSS positive subscale scores, oxytocin versus placebo ([5]; week 3, P=0.006): significantly lower | PANSS negative subscale scores, oxytocin versus placebo ([5]; week 3, p=0.023): significantly lower
